Test results as given in patent US20240083857A1, “2-Methyl-Quinazolines” (Bayer Pharma Aktiengesellschaft, priority 2017, published 2024).
pIC50: −log10 of the molar value.

Key:
[1] = biological target: human SOS1 (loading of human K-Ras^G12C-GDP with fluorescent GTP-analog) (Homo sapiens, UniProt Q07889); assay: Biochemical assay 3: K-Ras^G12C activation assay by hSOS1 (HTRF); conditions: no GTP; for inhibition at 20 µM: read-out: Assay 3 (KRAS-Activation by SOS no GTP) activity expressed as % inhibition at 20 μM; for pIC50: read-out: Assay 3 (KRAS-Activation by SOS no GTP) activity expressed as IC50
[2] = biological target: human SOS1 (nucleotide exchange of K-Ras^G12C) (Homo sapiens, UniProt Q07889); assay: Biochemical assay 2: K-Ras^G12C activation assay by hSOS1 at high GTP concentration (HTRF); conditions: high GTP; for pIC50: read-out: Assay 2 (KRAS-Activation by SOS high GTP) activity expressed as IC50
[3] = biological target: K-Ras^G12C : hSOS1 interaction (Homo sapiens, UniProt Q07889); assay: Biochemical assay 1: K-Ras^G12C interaction assay with hSOS1 (HTRF); assay type: binding; conditions: for inhibition at 20 µM: read-out: Assay 1 (KRAS-SOS Interaction) activity expressed as % inhibition at 20 μM; for pIC50: read-out: Assay 1 (KRAS-SOS Interaction) activity expressed as IC50

Row | SMILES | inhibition at 20 µM [1] | inhibition at 20 µM ([2]; read-out: Assay 2 (KRAS-Activation by SOS high GTP) activity expressed as % inhibition at 20 μM, at 20 μM) | inhibition at 20 µM [3] | pIC50 [1] | pIC50 [2] | pIC50 [3]
1 | COc1cc2nc(C)nc(N[C@H](C)c3cccc(-c4ccc(OCc5ccccc5)cc4)c3)c2cc1OC [Example 97, N-{(1R)-1-[4′-(benzyloxy)biphenyl-3-yl]ethyl}-6,7-dimethoxy-2-methylquinazolin-4-amine] | 38% | 28% | 39% | – | – | –
2 | COc1cccc(-c2cccc([C@@H](C)Nc3nc(C)nc4cc(OC)c(OC)cc34)c2)c1 [Example 99, 6,7-dimethoxy-N-[(1R)-1-(3′-methoxybiphenyl-3-yl)ethyl]-2-methylquinazolin-4-amine] | – | – | – | 5.58 | 5.85 | 5.66
3 | COc1cc2nc(C)nc(N[C@H](C)c3cccc(-c4cccc(C(F)(F)F)c4)c3)c2cc1OC [Example 100, 6,7-dimethoxy-2-methyl-N-{(1R)-1-[3′-(trifluoromethyl)biphenyl-3-yl]ethyl}quinazolin-4-amine] | – | – | – | 5.07 | 5.35 | 5.27
4 | COc1cc2nc(C)nc(N[C@H](C)c3cccc(-c4ccccc4S(=O)(=O)N(C)C)c3)c2cc1OC [Example 101, 3′-{(1R)-1-[(6,7-dimethoxy-2-methylquinazolin-4-yl)amino]ethyl}-N,N-dimethylbiphenyl-2-sulfonamide] | – | – | – | 5.74 | 6.05 | 6.15
5 | CCCOc1ccccc1-c1cccc([C@@H](C)Nc2nc(C)nc3cc(OC)c(OC)cc23)c1 [Example 102, 6,7-dimethoxy-2-methyl-N-[(1R)-1-(2′-propoxybiphenyl-3-yl)ethyl]quinazolin-4-amine] | – | – | – | 4.94 | 5.45 | 5.20
6 | COc1cc2nc(C)nc(N[C@H](C)c3cccc(-c4ccccc4C(=O)N(C)C)c3)c2cc1OC [Example 103, 3′-{(1R)-1-[(6,7-dimethoxy-2-methylquinazolin-4-yl)amino]ethyl}-N,N-dimethylbiphenyl-2-carboxamide] | – | – | – | 5.56 | 5.61 | 5.84
7 | COCc1ccccc1-c1cccc([C@@H](C)Nc2nc(C)nc3cc(OC)c(OC)cc23)c1 [Example 104, 6,7-dimethoxy-N-{(1R)-1-[2′-(methoxymethyl)biphenyl-3-yl]ethyl}-2-methylquinazolin-4-amine] | – | – | – | 5.60 | 5.72 | 5.74
8 | COc1cc2nc(C)nc(N[C@H](C)c3cccc(-c4ccc5c(ccn5C)c4)c3)c2cc1OC [Example 105, 6,7-dimethoxy-2-methyl-N-{(1R)-1-[3-{1-methyl-1H-indol-5-yl)phenyl]ethyl}quinazolin-4-amine] | – | – | – | 5.56 | 5.86 | 5.62
9 | COc1cc2nc(C)nc(N[C@H](C)c3cccc(-c4cccc(C(=O)N(C)C)c4)c3)c2cc1OC [Example 106, 3′-{(1R)-1-[(6,7-dimethoxy-2-methylquinazolin-4-yl)amino]ethyl}-N,N-dimethylbiphenyl-3-carboxamide] | – | – | – | 5.69 | 5.82 | 5.85
10 | COc1cc2nc(C)nc(N[C@H](C)c3cccc(-c4ccc(CO)s4)c3)c2cc1OC [Example 107, [5-(3-{(1R)-1-[(6,7-dimethoxy-2-methylquinazolin-4-yl)amino]ethyl}phenyl)thiophen-2-yl]methanol] | – | – | – | 6.36 | 6.33 | 6.50
11 | COc1cc2nc(C)nc(N[C@H](C)c3cccc(-c4ccncc4C)c3)c2cc1OC [Example 108, 6,7-dimethoxy-2-methyl-N-{(1R)-1-[3-(3-methylpyridin-4-yl)phenyl]ethyl}quinazolin-4-amine] | – | – | – | 5.91 | 6.05 | 6.09
12 | COc1cc2nc(C)nc(N[C@H](C)c3cccc(-c4ccc5cc[nH]c5c4)c3)c2cc1OC [Example 109, N-{(1R)-1-[3-(1H-indol-6-yl)phenyl]ethyl}-6,7-dimethoxy-2-methylquinazolin-4-amine] | – | – | – | 5.85 | 6.41 | 6.00
13 | COc1cc2nc(C)nc(N[C@H](C)c3cccc(-c4cccc5[nH]ccc45)c3)c2cc1OC [Example 110, N-{(1R)-1-[3-(1H-indol-4-yl)phenyl]ethyl}-6,7-dimethoxy-2-methylquinazolin-4-amine] | – | – | – | 5.92 | 6.04 | 5.98
14 | COc1ncc(-c2cccc([C@@H](C)Nc3nc(C)nc4cc(OC)c(OC)cc34)c2)cn1 [Example 111, 6,7-dimethoxy-N-{(1R)-1-[3-(2-methoxypyrimidin-5-yl)phenyl]ethyl}-2-methylquinazolin-4-amine] | – | – | – | 5.48 | 5.78 | 5.68
15 | COc1cc2nc(C)nc(N[C@H](C)c3cccc(-c4cccc(S(C)(=O)=O)c4)c3)c2cc1OC [Example 112, 6,7-dimethoxy-2-methyl-N-{(1R)-1-[3′-(methylsulfonyl)biphenyl-3-yl]ethyl}quinazolin-4-amine] | – | – | – | 5.95 | 6.02 | 6.16
16 | COc1cc2nc(C)nc(N[C@H](C)c3cccc(-c4ccc5c(c4)CCO5)c3)c2cc1OC [Example 113, N-{(1R)-1-[3-(2,3-dihydro-1-benzofuran-5-yl)phenyl]ethyl}-6,7-dimethoxy-2-methylquinazolin-4-amine] | – | – | – | 5.68 | 6.08 | 5.87
17 | COc1cc2nc(C)nc(N[C@H](C)c3cccc(/C=C/c4ccccc4)c3)c2cc1OC [Example 114, 6,7-dimethoxy-2-methyl-N-[(1R)-1-{3-[(E)-2-phenylethenyl]phenyl}ethyl]quinazolin-4-amine] | – | – | – | 5.04 | 5.62 | 5.28
18 | COc1cc2nc(C)nc(N[C@H](C)c3cccc(-c4ccc(C(=O)N(C)C)cc4)c3)c2cc1OC [Example 115, 3′-{(1R)-1-[(6,7-dimethoxy-2-methylquinazolin-4-yl)amino]ethyl}-N,N-dimethylbiphenyl-4-carboxamide] | – | – | – | 5.80 | 6.10 | 6.06
19 | C/C=C/c1cccc([C@@H](C)Nc2nc(C)nc3cc(OC)c(OC)cc23)c1 [Example 116, 6,7-dimethoxy-2-methyl-N-[(1R)-1-{3-[(1E)-prop-1-en-1-yl]phenyl}ethyl]quinazolin-4-amine] | – | – | – | 5.76 | 5.94 | 5.97
20 | COc1cc2nc(C)nc(N[C@H](C)c3cccc(C4=CCCC4)c3)c2cc1OC [Example 117, N-{(1R)-1-[3-(cyclopent-1-en-1-yl)phenyl]ethyl}-6,7-dimethoxy-2-methylquinazolin-4-amine] | – | – | – | 5.51 | 5.87 | 5.78
21 | COc1cc2nc(C)nc(N[C@H](C)c3cccc(-c4cccc(NS(C)(=O)=O)c4)c3)c2cc1OC [Example 118, N-(3′-{(1R)-1-[(6,7-dimethoxy-2-methylquinazolin-4-yl)amino]ethyl}biphenyl-3-yl)methanesulfonamide] | – | – | – | 6.11 | 6.32 | 6.28
22 | COc1cc2nc(C)nc(N[C@H](C)c3cccc(-c4ccccc4NC(C)=O)c3)c2cc1OC [Example 119, N-(3′-{(1R)-1-[(6,7-dimethoxy-2-methylquinazolin-4-yl)amino]ethyl}biphenyl-2-yl)acetamide] | – | – | – | 5.83 | 5.89 | 6.07
23 | COc1cc2nc(C)nc(N[C@H](C)c3cccc(-c4ccccc4S(C)(=O)=O)c3)c2cc1OC [Example 120, 6,7-dimethoxy-2-methyl-N-{(1R)-1-[2′-(methylsulfonyl)biphenyl-3-yl]ethyl}quinazolin-4-amine] | – | – | – | 5.45 | 5.69 | 5.80
24 | COc1cc2nc(C)nc(N[C@H](C)c3cccc(-c4ccccc4NS(C)(=O)=O)c3)c2cc1OC [Example 121, N-(3′-{(1R)-1-[(6,7-dimethoxy-2-methylquinazolin-4-yl)amino]ethyl}biphenyl-2-yl)methanesulfonamide] | – | – | – | 6.10 | 6.17 | 6.34
25 | COc1cc2nc(C)nc(N[C@H](C)c3cccc(-c4cccc(OCc5ccccc5)c4)c3)c2cc1OC [Example 123, N-{(1R)-1-[3′-(benzyloxy)biphenyl-3-yl]ethyl}-6,7-dimethoxy-2-methylquinazolin-4-amine] | 42% | – | 52% | – | 4.88 | –
26 | COc1cc2nc(C)nc(N[C@H](C)c3cccc(-c4cc(Cl)cc(Cl)c4)c3)c2cc1OC [Example 124, N-[{1R)-1-(3′,5′-dichlorobiphenyl-3-yl)ethyl]-6,7-dimethoxy-2-methylquinazolin-4-amine] | 37% | – | – | – | 5.03 | 4.74
27 | COc1cc2nc(C)nc(N[C@H](C)c3cccc(-c4ccc5c(c4)OCCO5)c3)c2cc1OC [Example 125, N-{(1R)-1-[3-(2,3-dihydro-1,4-benzodioxin-6-yl)phenyl]ethyl}-6,7-dimethoxy-2-methylquinazolin-4-amine] | – | – | – | 5.69 | 5.96 | 5.69
28 | COc1cc2nc(C)nc(N[C@H](C)c3ccc(C#N)cc3)c2cc1OC [Example 189, 4-{(1R)-1-[(6,7-dimethoxy-2-methylquinazolin-4-yl)amino]ethyl}benzonitrile] | – | – | – | 5.56 | 5.93 | 6.00
29 | COc1cc2nc(C)nc(NC(C)c3cc(Br)cc4c3OCC4)c2cc1OC (stereo not drawn) [Example 225, N-[1-(5-bromo-2,3-dihydro-1-benzofuran-7-yl)ethyl]-6,7-dimethoxy-2-methylquinazolin-4-amine] | – | – | – | 5.33 | 5.64 | 5.81
